Reference: patent US12281057B2 (VERTEX PHARMACEUTICALS INCORPORATED, priority 2017, dated 2025)

biological target: truncated form of human NaV 1.8 with full channel activity (Homo sapiens, UniProt Q9Y5Y9); test: E-VIPR Assay Method A for detecting and measuring Nav inhibition (HEK cells, membrane potential FRET dyes, electrical stimulation); type: cell-based; details: HEK cells expressing human NaV 1.8, HS (human serum) in compound loading buffer, 11 point dose response, top dose 3 μM, Table 20, read-out: Nav 1.8 MedChem Optical Assay EVIPR Assay Method A HS IC50
From the text: E-VIPR Assay Method A for Detecting and Measuring Nav Inhibition Properties Sodium ion channels are voltage-dependent proteins that can be activated by inducing membrane voltage changes by applying electric fields. The electrical stimulation instrument and methods of use, referred to as E-VIPR, are described in International Publication No. WO 2002/008748 A3 and C.-J. Huang et al. Characterization of voltage-gated sodium channel blockers by electrical stimulation and fluorescence detection of membrane potential, 24 Nature Biotech. 439-46 (2006), both of which are incorporated by reference in their entirety. The instrument comprises a microtiter plate handler, an optical system for exciting the coumarin dye while simultaneously recording the coumarin and oxonol emissions, a waveform generator, a current- or voltage-controlled amplifier, and parallel electrode pairs that are inserted into assay plate wells. Under integrated computer control, this instrument passes user-programmed electrical stimulus protocols to cells within the wells of the microtiter plate. […] Sigma #F4135), 1% NEAA (Non-Essential Amino Acids, Life Tech #11140), 1% HEPES (Life Tech #15630), 1% Pen-Strep (Penicillin-Streptomycin; […] Cells were expanded in vented cap flasks, with 95% humidity and 5% CO2. Reagents and Stock Solutions: • 100 mg/mL Pluronic F-127 (Sigma #P2443), in dry DMSO • Compound Plates: […] 5% KIR 2.1 Bacmam virus (produced in-house), prepared as described in Section 3.3 of J. A. […] The solution was made by adding 10% Pluronic F127 stock equal to combined volumes of CC2-DMPE and DiSBAC6(3). The order of preparation was first mix Pluronic and CC2-DMPE, then add DiSBAC6(3), then while vortexing add Bath1/β-Cyclodextrin. […] Assay Protocol: […] Final DMSO concentration for all wells in the assay was 0.625% (0.75% DMSO was supplemented to the Compound Loading Buffer for a final DMSO concentration of 0.625%). […] 3) Cell plates were prepared. On the day of the assay, the media was aspirated, and the cells were washed three times with 80 μL of Bath-1 buffer, maintaining 25 μL residual volume in each well. 4) 25 μL per well of Hexyl Dye Solution was dispensed into the cell plates. The cells were incubated for 20 minutes at room temp or ambient conditions in darkness. 5) 80 μL per well of Compound Loading Buffer was dispensed into compound plates. 6) The cell plates were washed three times with 80 μL per well of Bath-1 Buffer, leaving 25 µL of residual volume. Then 25 uL per well from compound plate was transferred to each cell plate. The mixture was incubated for 30 minutes at room temp/ambient conditions. 7) The plate was read on E-VIPR using the current-controlled amplifier to deliver stimulation wave pulses using the following protocol: 1.25 Amps, 2.5 ms pulse width biphasic waveform, 10 Hz for 10 seconds at a scan rate of 200 Hz. A pre-stimulus recording was performed for 0.5 seconds to obtain the un-stimulated intensities baseline. The stimulatory waveform was followed by 0.5 seconds of post-stimulation recording to examine the relaxation to the resting state. Data Analysis: Data were analyzed and reported as normalized ratios of emission intensities measured in the 460 nm and 580 nm channels. The response as a function of time was reported as the ratios obtained using the following formula: […] The data were further reduced by calculating the initial (Ri) and final (Rf) ratios. These were the average ratio values during part or all of the pre-stimulation period and during sample points during the stimulation period. The fluorescence ratio (Rf/Ri) was then calculated and reported as a function of time. Control responses were obtained by performing assays in the presence of the positive control, and in the absence of pharmacological agents (DMSO vehicle negative control). Responses to the negative (N) and positive (P) controls were calculated as above. The compound antagonist % activity A was then defined as: [formula] where X is the ratio response of the test compound. […]

truncated form of human NaV 1.8 with full channel activity, sequence (Q9Y5Y9 126-1722 limits assumed): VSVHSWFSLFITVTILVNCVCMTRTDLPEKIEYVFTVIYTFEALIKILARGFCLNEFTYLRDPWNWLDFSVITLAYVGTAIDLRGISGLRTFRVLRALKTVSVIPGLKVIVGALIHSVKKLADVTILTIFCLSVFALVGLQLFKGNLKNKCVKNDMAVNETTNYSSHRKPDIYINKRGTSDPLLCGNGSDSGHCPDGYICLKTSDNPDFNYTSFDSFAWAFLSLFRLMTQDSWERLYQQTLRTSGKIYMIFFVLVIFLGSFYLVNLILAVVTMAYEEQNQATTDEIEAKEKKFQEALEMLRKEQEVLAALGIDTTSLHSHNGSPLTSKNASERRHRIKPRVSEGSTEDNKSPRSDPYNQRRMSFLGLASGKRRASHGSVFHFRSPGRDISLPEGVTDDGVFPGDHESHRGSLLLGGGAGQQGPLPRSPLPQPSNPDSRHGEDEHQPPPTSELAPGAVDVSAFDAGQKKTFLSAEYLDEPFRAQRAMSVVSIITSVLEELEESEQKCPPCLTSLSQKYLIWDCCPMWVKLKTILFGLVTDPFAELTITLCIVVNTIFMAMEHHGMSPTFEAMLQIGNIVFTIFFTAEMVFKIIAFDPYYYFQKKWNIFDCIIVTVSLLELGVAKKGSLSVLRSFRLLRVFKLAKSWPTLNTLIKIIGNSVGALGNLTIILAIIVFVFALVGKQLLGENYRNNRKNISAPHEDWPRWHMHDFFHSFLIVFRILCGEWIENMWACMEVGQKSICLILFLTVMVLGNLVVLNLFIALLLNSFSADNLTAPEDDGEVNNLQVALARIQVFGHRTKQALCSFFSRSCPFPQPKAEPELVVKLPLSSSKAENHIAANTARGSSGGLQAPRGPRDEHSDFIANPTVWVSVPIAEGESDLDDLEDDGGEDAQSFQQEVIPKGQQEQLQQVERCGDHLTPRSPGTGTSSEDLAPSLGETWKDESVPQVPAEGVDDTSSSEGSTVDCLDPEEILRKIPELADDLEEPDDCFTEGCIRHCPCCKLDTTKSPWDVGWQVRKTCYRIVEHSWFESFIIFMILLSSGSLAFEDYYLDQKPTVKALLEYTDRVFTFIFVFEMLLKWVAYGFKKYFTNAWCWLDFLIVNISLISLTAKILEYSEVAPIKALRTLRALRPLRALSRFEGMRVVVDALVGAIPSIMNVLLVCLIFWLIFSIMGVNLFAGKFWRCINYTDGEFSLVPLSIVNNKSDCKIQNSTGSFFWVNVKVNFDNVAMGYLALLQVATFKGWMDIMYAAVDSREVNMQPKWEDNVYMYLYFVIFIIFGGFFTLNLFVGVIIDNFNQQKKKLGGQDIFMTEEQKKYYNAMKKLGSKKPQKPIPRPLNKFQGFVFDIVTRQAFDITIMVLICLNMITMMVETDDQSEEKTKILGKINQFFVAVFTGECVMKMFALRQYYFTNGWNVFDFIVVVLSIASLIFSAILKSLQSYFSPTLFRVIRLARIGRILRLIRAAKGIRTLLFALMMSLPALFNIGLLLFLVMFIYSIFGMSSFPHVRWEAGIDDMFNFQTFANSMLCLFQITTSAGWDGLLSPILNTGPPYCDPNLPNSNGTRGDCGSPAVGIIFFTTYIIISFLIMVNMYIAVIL

For `[2H]C([2H])([2H])Oc1cc(OC(F)(F)F)ccc1Oc1ccc(C(F)(F)F)c(F)c1C(=O)Nc1ccc(F)c(C(N)=O)c1` [Compound 1, N-(3-carbamoyl-4-fluoro-phenyl)-2-fluoro-6-[2-(trideuteriomethoxy)-4-(trifluoromethoxy)phenoxy]-3-(trifluoromethyl)benzamide], which IC50 is on record?
The IC50 was 0.7 nM.

`COc1cc(OC(F)(F)F)ccc1Oc1ccc(C(F)(F)F)c(F)c1C(=O)Nc1ccc(F)c(C(N)=O)c1` [Compound 2, N-(3-carbamoyl-4-fluoro-phenyl)-2-fluoro-6-[2-methoxy-4-(trifluoromethoxy)phenoxy]-3-(trifluoromethyl)benzamide] was tested. Which IC50 did it give?
The IC50 was 1 nM.

`[2H]C([2H])([2H])Oc1cc(OC(F)(F)F)ccc1Oc1ccc(OC(F)(F)F)c(F)c1C(=O)Nc1ccc(F)c(C(N)=O)c1` [Compound 3, N-(3-carbamoyl-4-fluoro-phenyl)-2-fluoro-6-[2-(trideuteriomethoxy)-4-(trifluoromethoxy)phenoxy]-3-(trifluoromethoxy)benzamide] was tested. Which IC50 did it give?
Its IC50 is 1 nM.

How did the IC50 turn out when `COc1cc(OC(F)(F)F)ccc1Oc1ccc(C(F)(F)F)c(F)c1C(=O)Nc1ccnc(C(N)=O)c1` [Compound 4, 4-[[2-fluoro-6-[2-methoxy-4-(trifluoromethoxy)phenoxy]-3-(trifluoromethyl)benzoyl]amino]pyridine-2-carboxamide] was run?
Its IC50 is 2 nM.

With `COc1cc(OC(F)(F)F)ccc1Oc1ccc(Cl)c(F)c1C(=O)Nc1ccnc(C(N)=O)c1` [Compound 5, 4-[[3-chloro-2-fluoro-6-[2-methoxy-4-(trifluoromethoxy)phenoxy]benzoyl]amino]pyridine-2-carboxamide] as the compound, how does the IC50 read?
The IC50 was 2 nM.

With `[2H]C([2H])([2H])Oc1cc(OC(F)(F)F)ccc1Oc1ccc(C(F)(F)F)c(F)c1C(=O)Nc1ccnc(C(N)=O)c1` [Compound 6, 4-[[2-fluoro-6-[2-(trideuteriomethoxy)-4-(trifluoromethoxy)phenoxy]-3-(trifluoromethyl)benzoyl]amino]pyridine-2-carboxamide] as the compound, how does the IC50 read?
Its IC50 is 3 nM.

With `COc1cc(OC(F)(F)F)ccc1Oc1ccc(C(F)F)c(F)c1C(=O)Nc1ccc(F)c(C(N)=O)c1` [Compound 7, N-(3-carbamoyl-4-fluoro-phenyl)-3-(difluoromethyl)-2-fluoro-6-[2-methoxy-4-(trifluoromethoxy)phenoxy]benzamide] as the compound, how does the IC50 read?
Its IC50 is 3 nM.

For `[2H]C([2H])([2H])Oc1cc(OC(F)(F)F)ccc1Oc1ccc(OC(F)(F)F)c(F)c1C(=O)Nc1ccnc(C(N)=O)c1` [Compound 8, 4-[[2-fluoro-6-[2-(trideuteriomethoxy)-4-(trifluoromethoxy)phenoxy]-3-(trifluoromethoxy)benzoyl]amino]pyridine-2-carboxamide], which IC50 is on record?
The IC50 was 3 nM.

`NC(=O)c1cc(NC(=O)c2c(Oc3ccc(OC(F)(F)F)cc3Cl)ccc(C(F)(F)F)c2F)ccc1F` [Compound 9, N-(3-carbamoyl-4-fluoro-phenyl)-6-[2-chloro-4-(trifluoromethoxy)phenoxy]-2-fluoro-3-(trifluoromethyl)benzamide] was tested. Which IC50 did it give?
The IC50 was 3 nM.

How did the IC50 turn out when `Cc1cc(OC(F)(F)F)ccc1Oc1ccc(C(F)(F)F)c(F)c1C(=O)Nc1ccc(F)c(C(N)=O)c1` [Compound 10, N-(3-carbamoyl-4-fluoro-phenyl)-2-fluoro-6-[2-methyl-4-(trifluoromethoxy)phenoxy]-3-(trifluoromethyl)benzamide] was run?
The IC50 was 3 nM.

`COc1cc(OC(F)(F)F)ccc1Oc1cc(F)c(F)c(F)c1C(=O)Nc1ccc(F)c(C(N)=O)c1` [Compound 11, N-(3-carbamoyl-4-fluoro-phenyl)-2,3,4-trifluoro-6-[2-methoxy-4-(trifluoromethoxy)phenoxy]benzamide] was tested. Which IC50 did it give?
Its IC50 is 4 nM.

`COc1cc(OC(F)(F)F)ccc1Oc1cnc(C(F)(F)F)c(F)c1C(=O)Nc1ccnc(C(N)=O)c1` [Compound 12, N-(2-Carbamoyl-4-pyridyl)-3-fluoro-5-[2-methoxy-4-(trifluoromethoxy)phenoxy]-2-(trifluoromethyl)pyridine-4-carboxamide] was tested. Which IC50 did it give?
Its IC50 is 4 nM.

How did the IC50 turn out when `NC(=O)c1cc(NC(=O)c2c(Oc3ccc(OC(F)(F)F)cc3OC(F)F)ccc(C(F)(F)F)c2F)ccn1` [Compound 13, 4-[[6-[2-(difluoromethoxy)-4-(trifluoromethoxy)phenoxy]-2-fluoro-3-(trifluoromethyl)benzoyl]amino]pyridine-2-carboxamide] was run?
The IC50 was 4 nM.

Which IC50 does the source give for `NC(=O)c1cc(NC(=O)c2c(Oc3ccc(OC(F)(F)F)c(Cl)c3)ccc(C(F)(F)F)c2F)ccc1F` [Compound 14, N-(3-carbamoyl-4-fluoro-phenyl)-6-[3-chloro-4-(trifluoromethoxy)phenoxy]-2-fluoro-3-(trifluoromethyl)benzamide] here?
Its IC50 is 6 nM.

With `NC(=O)c1cc(NC(=O)c2c(Oc3ccc(OC(F)(F)F)cc3)ccc(C(F)(F)F)c2F)ccc1F` [Compound 15, N-(3-carbamoyl-4-fluoro-phenyl)-2-fluoro-6-[4-(trifluoromethoxy)phenoxy]-3-(trifluoromethyl)benzamide] as the compound, how does the IC50 read?
Its IC50 is 7 nM.

How did the IC50 turn out when `COc1cc(OC(F)(F)F)ccc1Oc1ccc(C(F)(F)F)c(F)c1C(=O)Nc1ccc(C(N)=O)c(F)c1` [Compound 16, N-(4-carbamoyl-3-fluoro-phenyl)-2-fluoro-6-[2-methoxy-4-(trifluoromethoxy)phenoxy]-3-(trifluoromethyl)benzamide] was run?
Its IC50 is 7 nM.

`[2H]C([2H])([2H])Oc1cc(OC(F)(F)F)ccc1Oc1cc(C(F)(F)F)cc(F)c1C(=O)Nc1ccnc(C(N)=O)c1` [Compound 17, 4-[[2-fluoro-6-[2-(trideuteriomethoxy)-4-(trifluoromethoxy)phenoxy]-4-(trifluoromethyl)benzoyl]amino]pyridine-2-carboxamide] was tested. Which IC50 did it give?
The IC50 was 8 nM.

How did the IC50 turn out when `NC(=O)c1cc(NC(=O)c2c(Oc3ccc(OC(F)(F)F)c(F)c3)ccc(C(F)(F)F)c2F)ccc1F` [Compound 18, N-(3-carbamoyl-4-fluoro-phenyl)-2-fluoro-6-[3-fluoro-4-(trifluoromethoxy)phenoxy]-3-(trifluoromethyl)benzamide] was run?
The IC50 was 9 nM.

same assay, conditions: HEK cells expressing human NaV 1.8, HS (human serum) in compound loading buffer, 11 point dose response, top dose 3 μM, Table 20A, read-out: Nav 1.8 MedChem Optical Assay EVIPR Assay Method A HS IC50

For `COc1cc(OC(F)(F)F)ccc1Oc1cc(C2C[C@@H]2C)ncc1C(=O)Nc1ccc(F)c(C(N)=O)c1` (mixture of isomers) [Compound 106, Racemic trans-N-(3-Carbamoyl-4-fluoro-phenyl)-4-[2-methoxy-4-(trifluoromethoxy)phenoxy]-6-(2-methylcyclopropyl)pyridine-3-carboxamide], which IC50 is on record?
Its IC50 is 15 nM.

For `COc1cc(OC(F)(F)F)ccc1Oc1cc(C2C[C@@H]2C)ncc1C(=O)Nc1ccnc(C(N)=O)c1` (mixture of isomers) [Compound 109, Racemic trans-4-(4-(2-Methoxy-4-(trifluoromethoxy)phenoxy)-6-(2-methylcyclopropyl)nicotinamido)picolinamide], which IC50 is on record?
Its IC50 is 65 nM.

Which IC50 does the source give for `COc1cc(OC(F)(F)F)ccc1Oc1cc([C@H]2C[C@@H]2C)ncc1C(=O)Nc1ccnc(C(N)=O)c1` (single isomer, unassigned) [Compound 111] here?
The IC50 was 200 nM.

`COc1cc(OC(F)(F)F)ccc1Oc1cc([C@@H]2C[C@H]2C)ncc1C(=O)Nc1ccnc(C(N)=O)c1` (single isomer, unassigned) [Compound 112] was tested. Which IC50 did it give?
The IC50 was 43 nM.

How did the IC50 turn out when `COc1cc(OC(F)(F)F)ccc1Oc1cc([C@H]2C[C@@H]2C)ncc1C(=O)Nc1ccc(F)c(C(N)=O)c1` (single isomer, unassigned) [Compound 113] was run?
The IC50 was 84 nM.

For `COc1cc(OC(F)(F)F)ccc1Oc1cc([C@@H]2C[C@H]2C)ncc1C(=O)Nc1ccc(F)c(C(N)=O)c1` (single isomer, unassigned) [Compound 114], which IC50 is on record?
Its IC50 is 17 nM.
